The test system of one data set is Salmonella typhimurium. The experiment in a line: Minimum inhibitory concentration of thymol in BHI broth (turbidity). It counts as cell-based. Conditions: Salmonella enterica, 37° C., 24 hours, 1.0% (v/v) inoculum. The method, then:
The mixture was subjected to high speed homogenization. After homogenization, the dispersion was centrifuged to collect aqueous liquid. The concentration of thymol in this phytoglycogen-thymol liquid stock was determined to be about 400 μg/mL. As reference, a thymol-alone stock of 400 μg/mL in sodium acetate buffer (50 mM, pH 5.5) was prepared by adding thymol in the buffer and vortex. The phytoglycogen-thymol stock and thymol-alone stock were added to Brain Heart Infusion (BHI) broth to make the thymol concentrations of 12.5, 25, 50, 80, 100, and 125 μg/mL. To the glass tubes containing these broth liquids, Salmonella typhimurium culture (about 10^9 CFU/mL) was inoculated at a 1.0% (v/v) level, and all liquids were incubated at 37° C. for 24 hours. Thereafter, the tubes were photographed for comparing the turbidity.

Data set [1] can be described thus: Curcumin solubility in pH 6.5 10 mM NaAc buffer as affected by carriers. It counts as physicochemical. Conditions: carrier 10 mg/mL; for Curcumin Solubility: excess curcumin homogenized. As to the method: Thereafter, 1.0 mL aliquot was drawn from each mixture and subjected to centrifugation. The supernatant was added to ethanol to extract curcumin.
Another data set in a line: physchem. It counts as physicochemical. Conditions: 22 °C, pH 6.6, aqueous buffer, kinetic from dmso stock.

The MIC is the least concentration at which growth counts as inhibited. The low end stands for a more susceptible organism, the high end for a less susceptible organism. The solubility is how much of the substance goes into solution per volume.

Molecule `Cc1ccc(C(C)C)c(O)c1` [thymol-alone, thymol] yielded an MIC against Salmonella typhimurium greater than 125 µg/mL. Turning to `OC[C@H]1O[C@@H]2O[C@H]3[C@H](O)[C@@H](O)[C@@H](O[C@H]4[C@H](O)[C@@H](O)[C@@H](O[C@H]5[C@H](O)[C@@H](O)[C@@H](O[C@H]6[C@H](O)[C@@H](O)[C@@H](O[C@H]7[C@H](O)[C@@H](O)[C@@H](O[C@H]8[C@H](O)[C@@H](O)[C@@H](O[C@H]1[C@H](O)[C@H]2O)O[C@@H]8CO)O[C@@H]7CO)O[C@@H]6CO)O[C@@H]5CO)O[C@@H]4CO)O[C@@H]3CO` [βCD, β-cyclodextrin], in data set [1], the Carrier/curcumin ratio is listed as 222/1 and the “Curcumin Solubility” value is 45.1 µg/mL. With `COc1cc(/C=C/C(=O)CC(=O)/C=C/c2ccc(O)c(OC)c2)ccc1O` [curcumin], the solubility at 2 h in “physchem” is less than 0.3 µg/mL.

Consider hydroxypropyl β-cyclodextrin [HPβCD], for which, in data set [1], the Carrier/curcumin ratio was 91/1 and the “Curcumin Solubility” value came to 110 µg/mL.

(Values after patent US11052153B2, “Highly branched alpha-D-glucans” (Purdue Research Foundation, priority 2012, dated 2021).)
